Measured values published in patent US10815235B2, “Polycyclic compounds and uses thereof” (priority 2017, dated 2020).
Read-outs that look alike come from different tables or passages of the source.

What was measured:
[1] = biological target: Serotonin 5-HT1D receptor (Homo sapiens, UniProt P28221); experiment: GTPγS Scintillation Proximity Assay, agonist and antagonist mode; type: biochemical
Protocol: Antagonist and agonist activities were determined using a GTPγS Scintillation Proximity Assay. The assay was prepared as follows: Membrane extracts were prepared from recombinant human Dopamine D2L, D3; Serotonin 5-HT1A, 5-HT1B, 5-HT1D and 5-HT1F receptors.
Samples were tested by proprietary biological assays by Ogeda S. A., Euroscreen FAST Business Unit, Rue Adrienne Bolland, 47 B-6041 Gosselies, Belgium. Each protein assay was prepared using the following conditions.
5-HT1D • Assay buffer: 20 mM HEPES pH 7.4; 200 mM NaCl, 10 μg/ml saponin, 3 mM MgCl2; • Membranes: recombinant 5-HT1D membrane extracts thawed on ice and diluted in assay buffer to give […] and kept on ice; • GDP: diluted in assay buffer to give a 30 μM working solution (3 μM final concentration); • Beads: PVT-WGA (Perkin Elmer, RPNQ001), diluted in assay buffer at 50 mg/ml (0.5 mg/10 μl); and • GTPγ^35S: (PerkinElmer NEG030X), diluted in assay buffer to give 0.1 nM.
Membranes were mixed with GDP (volume:volume 1:1) and incubated for at least 15 min on ice. In parallel, GTPγ[^35S] is mixed with the beads (volume:volume 1:1) just before starting the reaction.
To determine agonist activity, the following reagents were added in the wells of an Optiplate (Perkin Elmer): 50 μL of test or reference ligand, 10 μL of assay buffer, 20 μl of the membranes:GDP mix, and 20 μL of the GTPγ[^35S]:beads mix. EC50 values were used to determine whether a compound acted as an agonist.
To determine antagonist activity, the following reagents were added in the wells of an Optiplate (Perkin Elmer): 50 μL of test or reference ligand, 20 μL of the membranes:GDP mix, then the plate is incubated 15 minutes at room temperature. After incubation, 10 μL of reference agonist at historical EC80 (final concentration) was added, followed by 20 μL of the GTPγ[^35S]:beads mix.
The plates were covered with a top seal, mixed on an orbital shaker for 2 min, and then incubated for 1 hour at room temperature. Then the plates were centrifuged for 10 min at 2000 rpm, incubated at room temperature 1 hour and counted for 1 min/well with a PerkinElmer TopCount reader. IC50 values were used to determine whether a compound acted as an antagonist.

[2] = biological target: T1, Serotonin 5-HT2B receptor (Homo sapiens, UniProt P41595); experiment: IPOne HTRF assay, agonist and antagonist mode; type: cell-based
T1 construct: expressed in transfected cells; host or cells: CHO-K1
Protocol: Antagonist and agonist activities were determined using an IPOne […] HTRF assay. The assay was prepared as follows: CHO-K1 cells expressing human recombinant Adrenergic α1A, Serotonin 5-HT2A, and 5-HT2B receptors grown to mid-log phase in culture media without antibiotics were detached with PBS-EDTA, centrifuged and resuspended in medium without antibiotics buffer. 20,000 cells were distributed in a 96 well plate and incubated overnight at 37° C. with 5% CO2.
To analyze agonist activity, the medium was removed and 20 μl of assay buffer plus 20 μl of test compound or reference agonist were added in each well. The plate was incubated for 60 min. at 37° C. with 5% CO2. EC50 values were used to determine whether a compound acted as an agonist.
To analyze antagonist activity, 20 μl of test compound or reference antagonist was added and the plate is incubated for 15 min. at 37° C. in a humidified atmosphere of 95% air with 5% CO2, then 20 μl of reference agonist at a final concentration corresponding to the historical EC80 is added. The plate is incubated for 60 min. at 37° C. with 5% CO2. IP1-D2 reagent and anti-IP1 cryptate reagents are then dispensed in the wells and IP1 concentrations are then measured following the manufacturer recommendations. IC50 values were used to determine whether a compound acted as an antagonist.

T1 sequence (P41595 whole entry): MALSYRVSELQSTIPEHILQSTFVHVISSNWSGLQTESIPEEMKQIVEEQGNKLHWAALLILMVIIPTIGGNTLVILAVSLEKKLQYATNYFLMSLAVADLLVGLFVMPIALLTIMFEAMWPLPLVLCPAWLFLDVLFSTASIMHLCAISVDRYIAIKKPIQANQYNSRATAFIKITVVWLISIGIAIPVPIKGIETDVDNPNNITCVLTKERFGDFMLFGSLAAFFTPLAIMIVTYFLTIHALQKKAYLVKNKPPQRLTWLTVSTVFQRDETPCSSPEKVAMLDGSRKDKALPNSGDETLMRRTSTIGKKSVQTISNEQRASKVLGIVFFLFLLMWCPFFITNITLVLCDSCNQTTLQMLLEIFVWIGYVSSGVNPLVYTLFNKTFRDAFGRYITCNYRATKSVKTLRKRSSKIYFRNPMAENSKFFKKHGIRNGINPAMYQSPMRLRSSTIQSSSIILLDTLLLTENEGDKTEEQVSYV
Serotonin 5-HT1D receptor, sequence (P28221 whole entry): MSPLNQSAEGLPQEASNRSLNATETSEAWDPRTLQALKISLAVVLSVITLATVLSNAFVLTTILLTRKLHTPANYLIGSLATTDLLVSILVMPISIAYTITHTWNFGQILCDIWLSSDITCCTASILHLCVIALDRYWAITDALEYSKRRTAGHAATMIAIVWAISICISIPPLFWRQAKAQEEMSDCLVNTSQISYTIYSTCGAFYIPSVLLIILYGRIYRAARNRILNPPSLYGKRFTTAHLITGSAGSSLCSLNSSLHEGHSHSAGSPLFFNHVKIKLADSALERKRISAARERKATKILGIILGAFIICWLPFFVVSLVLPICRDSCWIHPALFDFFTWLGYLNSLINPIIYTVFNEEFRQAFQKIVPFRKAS

Question: Which results are given for `CC[C@@H](CO)NC(=O)[C@@H]1C=C2c3cccc4c3c(c(C3CC3)n4C)C[C@H]2N(C)C1` [Compound D13, (6aR,9R)-5-cyclopropyl-N—((S)-1-hydroxybutan-2-yl)-4,7-dimethyl-4,6,6a,7,8,9-hexahydroindolo[4,3-fg]quinoline-9-carboxamide]?
Answer: EC50 ([1]; Agonist Activity (EC50), 5-HT1D, membrane extracts): 730 nM; EC50 ([1]; EC50 value for the Serotonin 5-HT1D receptor, agonist mode, bound stated): < 1000 nM; IC50 ([2]; CHO-K1 cells, vs reference agonist at EC80, read-out: Antagonist Activity (IC50), 5-HT2B): 140 nM; IC50 ([2]; antagonist mode, bound stated, read-out: IC50 value for the Serotonin 5-HT2B receptor): < 1000 nM
